The numbers were not newly measured in patent US20220313671A1 (Chiesi Farmaceutici S.p.A., priority 2011, published 2022), which cites them from elsewhere.

As for `CCCC(=O)OCOC(=O)C1=C(C)NC(C)=C(C(=O)OC)C1c1cccc(Cl)c1Cl` (stereo not drawn) [clevidipine], the “full offset of activity” value (rapid offset of activity) was 5 to 15 min. The onset of activity (rapid onset of activity) was 2 to 4 min. The “return of blood pressure to pre-treatment levels” value (time after discontinuation of clevidipine) is 5 to 15 min.
